One test has as its system K562. The experiment in a line: Cytotoxicity against human K562 cells assessed as inhibition of cell growth incubated for 48 hrs by CCK-8 assay. The class given is functional, cell-based. The settings on record: K562, 48 h. For orientation: Tetrazolium dyes change colour on reduction, which living cells bring about.
The subject of test [1] is T-24. The test is described as follows: Cytotoxicity against human T24 cells assessed as inhibition of cell growth incubated for 48 hrs by CCK-8 assay. The class given is functional, cell-based. Conditions: T-24, 48 h.
Test [2] has as its system MKN-45. The experiment in a line: Cytotoxicity against human MNK45 cells assessed as inhibition of cell growth incubated for 48 hrs by CCK-8 assay. The class given is functional, cell-based. The settings on record: MKN-45, 48 h.
A further test concerns HepG2. The test is described as follows: Cytotoxicity against human HepG2 cells assessed as inhibition of cell growth incubated for 48 hrs by CCK-8 assay. It counts as functional, cell-based. The settings on record: HepG2, 48 h.
Test [3] has as its system A549. The test is described as follows: Cytotoxicity against human A549 cells assessed as inhibition of cell growth incubated for 48 hrs by CCK-8 assay. The class given is functional, cell-based. Conditions: A549, 48 h.
Another test relates to MCF7. The experiment in a line: Cytotoxicity against human MCF7 cells assessed as inhibition of cell growth incubated for 48 hrs by CCK-8 assay. It counts as functional, cell-based. Conditions: MCF7, 48 h.
Test [4] deals with T-24. The experiment in a line: Potency index, ratio of diosgenin IC50 to test compound IC50 for cytotoxicity against human T24 cells assessed as inhibition of cell growth incubated for 48 hrs by CCK-8 assay. It counts as functional.
Test [5] deals with MKN-45. The experiment in a line: Potency index, ratio of diosgenin IC50 to test compound IC50 for cytotoxicity against human MNK45 cells assessed as inhibition of cell growth incubated for 48 hrs by CCK-8 assay. The class given is functional.
Test [6] concerns A549. The test is described as follows: Potency index, ratio of diosgenin IC50 to test compound IC50 for cytotoxicity against human A549 cells assessed as inhibition of cell growth incubated for 48 hrs by CCK-8 assay. It counts as functional.

The record followed here is ChEMBL document CHEMBL4813993, “Design and synthesis of diosgenin derivatives as apoptosis inducers through mitochondria-related pathways” (Eur J Med Chem, 2021).

On to `CC(=O)O[C@H]1CC[C@@]2(C)C(=CC[C@H]3[C@@H]4C[C@@H]5O[C@H](CC[C@@H](C)COC(=O)CN)[C@@H](C)[C@@H]5[C@@]4(C)CC[C@@H]32)C1`, for which the IC50 is 15.2 µM with K562; 10.4 µM with T-24 [1]; 17.3 µM in the test with MKN-45 [2]; over 30 µM with HepG2; over 30 µM in the test on A549 [3]; over 30 µM in the test with MCF7.

For `C[C@@H]1CC[C@@]2(OC1)O[C@H]1C[C@H]3[C@@H]4CC=C5C[C@@H](OC(=O)[C@@H](N)Cc6c[nH]c7ccccc67)CC[C@]5(C)[C@H]4CC[C@]3(C)[C@H]1[C@@H]2C`, the IC50 was determined as 8.47 µM in the test on K562; 7.06 µM in the test with T-24 [1]; 5.21 µM in the test with MKN-45 [2]; 17 µM with HepG2; 12.9 µM in the test with A549 [3]; 9.6 µM with MCF7. Besides, the “Ratio IC50” value in the test with T-24 [4] was 4.1; with MKN-45 [5] it was 15.

In the case of `CC(=O)O[C@H]1CC[C@@]2(C)C(=CC[C@H]3[C@@H]4C[C@@H]5O[C@H](CC[C@@H](C)COC(=O)[C@H](C)N)[C@@H](C)[C@@H]5[C@@]4(C)CC[C@@H]32)C1`, the IC50 in the test with K562 is 17.5 µM; in the test with T-24 [1], 11.4 µM; with MKN-45 [2], 10.7 µM; with HepG2 it was over 30 µM; with A549 [3], 27.6 µM; with MCF7 it was over 30 µM.

`C[C@@H]1CC[C@@]2(OC1)O[C@H]1C[C@H]3[C@@H]4CC=C5C[C@@H](OC(=O)[C@H](C)N)CC[C@]5(C)[C@H]4CC[C@]3(C)[C@H]1[C@@H]2C`: the IC50 in the test on K562 is 15.5 µM; with T-24 [1], 9.1 µM; in the test with MKN-45 [2], 11.5 µM; in the test on HepG2, over 30 µM; in the test with A549 [3], 18.1 µM; in the test on MCF7, over 30 µM.

`C[C@@H]1CC[C@@]2(OC1)O[C@H]1C[C@H]3[C@@H]4CC=C5C[C@@H](O)CC[C@]5(C)[C@H]4CC[C@]3(C)[C@H]1[C@@H]2C` [DISOGENIN]: the IC50 with K562 came to 30 µM; in the test on T-24 [1], 28.9 µM; in the test on MKN-45 [2], 78.3 µM; with HepG2, 48.4 µM; in the test with A549 [3], 32.9 µM; in the test on MCF7 it was 28.5 µM.

For `CC(=O)O[C@H]1CC[C@@]2(C)C(=CC[C@H]3[C@@H]4C[C@@H]5O[C@H](CC[C@@H](C)COC(=O)[C@@H]6CCCN6)[C@@H](C)[C@@H]5[C@@]4(C)CC[C@@H]32)C1`, the IC50 in the test with K562 is 27.7 µM; in the test with T-24 [1], 12.2 µM; with MKN-45 [2] it was 17.3 µM; with HepG2 it was 18.5 µM; in the test with A549 [3], 22.3 µM; in the test on MCF7 it was over 30 µM.

`CC(=O)O[C@H]1CC[C@@]2(C)C(=CC[C@H]3[C@@H]4C[C@@H]5O[C@H](CC[C@@H](C)COC(=O)[C@@H](N)CC(C)C)[C@@H](C)[C@@H]5[C@@]4(C)CC[C@@H]32)C1`: the half-maximal inhibitory concentration (IC50) is 11.5 µM in the test with K562; 5.67 µM in the test with T-24 [1]; 12.1 µM with MKN-45 [2]; 12.9 µM in the test with HepG2; over 30 µM in the test with A549 [3]; 21.2 µM in the test with MCF7.

For the compound `CC(C)[C@H](N)C(=O)O[C@H]1CC[C@@]2(C)C(=CC[C@H]3[C@@H]4C[C@@H]5O[C@]6(CC[C@@H](C)CO6)[C@@H](C)[C@@H]5[C@@]4(C)CC[C@@H]32)C1`, the IC50 in the test with K562 is 16.5 µM; with T-24 [1], 11.8 µM; in the test with MKN-45 [2] it was 13.4 µM; in the test with HepG2 it was 27.7 µM; in the test on A549 [3], 23 µM; with MCF7, over 30 µM.

As for `CC(=O)O[C@H]1CC[C@@]2(C)C(=CC[C@H]3[C@@H]4C[C@@H]5O[C@H](CC[C@@H](C)COC(=O)[C@@H](N)Cc6ccccc6)[C@@H](C)[C@@H]5[C@@]4(C)CC[C@@H]32)C1`, the IC50 was 15.8 µM with K562; 8.22 µM in the test on T-24 [1]; over 30 µM in the test on MKN-45 [2]; 18.8 µM with HepG2; 27.2 µM in the test with A549 [3]; over 30 µM with MCF7.

As to `C[C@@H]1CC[C@@]2(OC1)O[C@H]1C[C@H]3[C@@H]4CC=C5C[C@@H](OC(=O)[C@@H]6CCCN6)CC[C@]5(C)[C@H]4CC[C@]3(C)[C@H]1[C@@H]2C`, the IC50 worked out at 7.47 µM with K562; 9.65 µM with T-24 [1]; 5.47 µM with MKN-45 [2]; 16.4 µM in the test with HepG2; 20.6 µM in the test with A549 [3]; 11.4 µM with MCF7.

In the case of `C[C@@H]1CC[C@@]2(OC1)O[C@H]1C[C@H]3[C@@H]4CC=C5C[C@@H](OC(=O)CN)CC[C@]5(C)[C@H]4CC[C@]3(C)[C@H]1[C@@H]2C` [GLYCINE DIOSGENYL ESTER], the IC50 stood at 7.68 µM in the test on K562; 9.98 µM in the test with T-24 [1]; 16.2 µM with MKN-45 [2]; 14.9 µM in the test on HepG2; 18 µM in the test on A549 [3]; 10.3 µM in the test on MCF7.

For the compound `C[C@@H]1CC[C@@]2(OC1)O[C@H]1C[C@H]3[C@@H]4CC=C5C[C@@H](OC(=O)[C@@H](N)Cc6ccccc6)CC[C@]5(C)[C@H]4CC[C@]3(C)[C@H]1[C@@H]2C`, the 50% inhibitory concentration (IC50) with K562 was 8.59 µM; in the test with T-24 [1], 10.6 µM; in the test on MKN-45 [2], 11.4 µM; with HepG2, 26.1 µM; with A549 [3], over 30 µM; with MCF7 it was 25.4 µM.

In the case of `CC(C)C[C@H](N)C(=O)O[C@H]1CC[C@@]2(C)C(=CC[C@H]3[C@@H]4C[C@@H]5O[C@]6(CC[C@@H](C)CO6)[C@@H](C)[C@@H]5[C@@]4(C)CC[C@@H]32)C1`, the half-inhibitory concentration (IC50) with K562 is 10.5 µM; with T-24 [1], 8.83 µM; in the test on MKN-45 [2], 10.4 µM; in the test on HepG2, over 30 µM; in the test on A549 [3], over 30 µM; in the test on MCF7, over 30 µM.

Turning to `CC(=O)O[C@H]1CC[C@@]2(C)C(=CC[C@H]3[C@@H]4C[C@@H]5O[C@H](CC[C@@H](C)COC(=O)[C@@H](N)C(C)C)[C@@H](C)[C@@H]5[C@@]4(C)CC[C@@H]32)C1`, the IC50 in the test with K562 stood at 6.77 µM; in the test on T-24 [1] it was 4.94 µM; in the test with MKN-45 [2], 7.01 µM; with HepG2 it was 12.3 µM; in the test with A549 [3], 4.92 µM; in the test on MCF7 it was 17.8 µM. The “Ratio IC50” value with A549 [6] is 6.7.

On to `O=c1[nH]cc(F)c(=O)[nH]1` [FLUOROURACIL], for which the concentration for half-maximal inhibition (IC50) in the test with K562 amounted to 20.2 µM; in the test with T-24 [1] it was 12.9 µM; in the test with MKN-45 [2], 21.4 µM; in the test on HepG2, 18.9 µM; with MCF7 it was 18.6 µM.

By IC50 is commonly meant the concentration at which inhibition is half-maximal.
